# Experimental data published in article PMC11457795 (Cell chemical biology, 2024).
# Target: PfMAGL (Plasmodium falciparum, UniProt Q8IJ22)
# Assay: fluorogenic 4-methylumbelliferyl caprylate hydrolysis assay, […] min preincubation
# Type: biochemical
smiles,measurement,value
"C#CCCCCP(=O)(OCC)Oc1ccc(S(=O)(=O)F)cc1 (racemic) [compound 2, ethyl (4-(fluorosulfonyl)phenyl) hex-5-yn-1-ylphosphonate]",IC50,20 nM
